Laboratory results taken from patent publication US20240158446A1, “CYCLIC COMPOUND HAVING SELECTIVE INHIBITORY ACTION ON KRAS OVER HRAS AND NRAS” (CHUGAI SEIYAKU KABUSHIKI KAISHA, priority 2021, published 2024).
Read-outs that look alike come from different tables or passages of the source. One block for each compound: values may come before it. *1 amine or outer side, *2 acyl side, *3 side chain or, on linkers, in order; H or OH if unused. Where a SMILES comes first, the peptide text is derived from it. Bridges are numbered along the chain shown (N, C = ends). [ ]: non-standard residue; d: D form. The star is where a group is joined. hPhe(3-Cl-4-CF3) = N[C@@H](CCc1ccc(C(F)(F)F)c(Cl)c1)C(=O)O; X20 = Cc1ccc(C[C@@H](C(=O)[*:2])N(CC2CCCC2)[*:1])cc1; 3Oxa8azabicyclo(3.2.1)octane = C1CC2COCC1N2*; NEtPhe(4-Me) = CCN[C@@H](Cc1ccc(C)cc1)C(=O)O; NMeGly(cPent) = CN[C@H](C(=O)O)C1CCCC1; NMeD = CN[C@@H](CC(=O)O)C(=O)O; NMeL = CN[C@@H](CC(C)C)C(=O)O; Morpholide = C1CN(*)CCO1; NMeAib = CNC(C)(C)C(=O)O; Nle = CCCC[C@H](N)C(=O)O; Piperidide = C1CCN(*)CC1; Ac5c = NC1(C(=O)O)CCCC1; Sar = CNCC(=O)O

How the values were obtained:
[1] = tested on: human lung cancer strain NCI-H441;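 note: cell proliferation inhibition after four days measured by CellTiter-Glo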
[2] = molecular target: GDP-bound HRAS wild-type protein (Homo sapiens, UniProt P01112); assay: Binding to HRAS by surface plasmon resonance (SPR), Single Cycle Kinetics; conditions: SPR, GDP-bound HRAS wild-type protein vs GDP-bound KRAS wild-type protein
[3] = molecular target: GDP-bound KRAS wild-type protein (Homo sapiens, UniProt P01116); assay: Binding to KRAS by surface plasmon resonance (SPR), Single Cycle Kinetics; conditions: GDP-bound KRAS wild-type protein, read-out: KRAS KD
[4] = molecular target: GDP-bound NRAS wild-type protein (Homo sapiens, UniProt P01111); assay: Binding to NRAS by surface plasmon resonance (SPR), Single Cycle Kinetics; conditions: SPR, GDP-bound NRAS wild-type protein vs GDP-bound KRAS wild-type protein
Chain of GDP-bound NRAS wild-type protein (P01111 whole entry): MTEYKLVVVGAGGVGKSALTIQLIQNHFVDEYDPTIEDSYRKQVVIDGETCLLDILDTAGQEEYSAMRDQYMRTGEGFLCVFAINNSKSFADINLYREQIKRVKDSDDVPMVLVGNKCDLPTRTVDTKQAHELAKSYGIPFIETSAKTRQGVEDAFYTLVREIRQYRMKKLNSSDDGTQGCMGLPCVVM

Chain of GDP-bound HRAS wild-type protein (P01112 whole entry): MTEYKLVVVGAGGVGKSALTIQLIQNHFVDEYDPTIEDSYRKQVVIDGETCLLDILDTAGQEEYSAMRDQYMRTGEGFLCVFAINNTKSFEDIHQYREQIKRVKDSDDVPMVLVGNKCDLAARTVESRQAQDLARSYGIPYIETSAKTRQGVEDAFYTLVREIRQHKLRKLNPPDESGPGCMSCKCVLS
Chain of GDP-bound KRAS wild-type protein (P01116 whole entry): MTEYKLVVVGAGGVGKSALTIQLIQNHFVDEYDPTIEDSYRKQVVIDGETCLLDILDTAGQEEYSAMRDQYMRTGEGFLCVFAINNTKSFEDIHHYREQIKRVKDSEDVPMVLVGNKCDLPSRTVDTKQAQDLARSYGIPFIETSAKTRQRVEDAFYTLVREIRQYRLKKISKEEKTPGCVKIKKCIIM

IC50 ([1]; read-out: NCI-H441 cell proliferation inhibitory activity, 50% proliferation inhibitory concentration (IC50 value), NCI-H441, four days, CellTiter-Glo): 1.7 nM
SMILES: CCCO[C@@H]1C[C@H]2C(=O)NC3(CC(C)(C)C3)C(=O)N(C)[C@@H](C3CCCC3)C(=O)N(C)[C@H](C(=O)N(C)C)CC(=O)N(C)[C@H]3CCCCc4ccc(cc4)C[C@@H](C(=O)N(C)CC(=O)N[C@@H](CCc4ccc(C(F)(F)F)c(OC)c4)C(=O)N2C1)N1CC/C=C\C[C@@H](C1=O)N(C)C(=O)CN(C1CC1)C(=O)[C@H]([C@@H](C)CC)NC3=O [PP3082]

IC50 ([1]; read-out: NCI-H441 IC50, NCI-H441 cell proliferation, 4 days, CellTiter-Glo): 17.6 nM
SMILES: CCO[C@@H]1C[C@H]2C(=O)NC3(CCC3)C(=O)N(C)[C@@H](C3CCCC3)C(=O)N(C)[C@H](CC)CC(=O)N(C)[C@@H](CC3CC3)C(=O)N[C@@H]([C@@H](C)CC)C(=O)N(C)CC(=O)N(C)[C@H]3C/C=C\CCN(C3=O)C(Cc3ccc(C(F)(F)F)cc3)C(=O)N(C)CC(=O)N[C@@H](CCc3cc(F)c(C(F)(F)F)c(F)c3)C(=O)N2C1 (some centres unmarked) [PP1631]

SMILES: CC[C@H](C)[C@@H]1NC(=O)[C@H](CC(C)C)N(C)C(=O)C[C@@H](C(=O)N2C3CCC2COC3)N(C)C(=O)[C@H](C2CCCC2)N(C)C(=O)C2(CCCC2)NC(=O)[C@@H]2CCCN2C(=O)[C@H](CCc2ccc(C(F)(F)F)c(Cl)c2)NC(=O)CN(C)C(=O)[C@H](Cc2ccc(C)cc2)N(CC)C(=O)CN(C)C(=O)CN(C)C1=O [PP0051] ([NMeL]I[Sar][Sar][NEtPhe(4-Me)][Sar][hPhe(3-Cl-4-CF3)]P[Ac5c][NMeGly(cPent)][NMeD]-{3Oxa8azabicyclo(3.2.1)octane}; lactam N-11)
IC50 [1]: 22.1 nM

IC50 [1]: 33.4 nM
SMILES: CC[C@H](C)[C@@H]1NC(=O)[C@H](COC)N(C)C(=O)C[C@@H](C(=O)N(C)C)N(C)C(=O)[C@H](C2CCCC2)N(C)C(=O)C2(CC(C)(C)C2)NC(=O)[C@@H]2C[C@@H](OC3CCCC3)CN2C(=O)[C@H](CCc2cc(F)c(C(F)(F)F)c(F)c2)NC(=O)CN(C)C(=O)[C@H](Cc2ccc(C)cc2)N2CC/C=C\C[C@@H](C2=O)N(C)C(=O)CN(C2CC2)C1=O [PP2626]

SMILES: CCCC[C@@H]1NC(=O)[C@H](CCc2ccc(C(F)(F)F)c(Cl)c2)NC(=O)CN(C)C(=O)[C@H](Cc2ccc(C)cc2)N(CC)C(=O)CN(C)C(=O)CN(C)C(=O)[C@H]([C@@H](C)CC)NC(=O)[C@H](CC(C)C)N(C)C(=O)C[C@@H](C(=O)N2CCCCC2)N(C)C(=O)[C@H](CC(C)C)NC(=O)C(C)(C)N(C)C1=O [PP0050] ([NMeL]I[Sar][Sar][NEtPhe(4-Me)][Sar][hPhe(3-Cl-4-CF3)][Nle][NMeAib]L[NMeD]-Piperidide; lactam N-11)
IC50 ([1]; read-out: NCI-H441 IC50, NCI-H441 cells, four days, CellTiter-Glo): 499 nM

Kd ([3]; SPR Single Cycle Kinetics, 1:1 binding model): 2.8 nM
SMILES: CC[C@H](C)[C@@H]1NC(=O)[C@H](CC(C)C)N(C)C(=O)C[C@@H](C(=O)N2CCOCC2)N(C)C(=O)[C@H](C2CCCC2)N(C)C(=O)C2(CCCC2)NC(=O)[C@@H]2CCCN2C(=O)[C@H](CCc2ccc(C(F)(F)F)c(Cl)c2)NC(=O)CN(C)C(=O)[C@H](Cc2ccc(C)cc2)N(CC2CCCC2)C(=O)CN(C)C(=O)CN(C)C1=O [PP0096] ([NMeL]I[Sar][Sar][X20][Sar][hPhe(3-Cl-4-CF3)]P[Ac5c][NMeGly(cPent)][NMeD]-Morpholide; lactam N-11)
HRAS/KRAS (ratio of KD value for HRAS to KD value for KRAS) [2]: C (A compound having a KD ratio of 0.1 or more and less than 3 is denoted as C)
NRAS/KRAS (ratio of KD value for NRAS to KD value for KRAS) [4]: C (A compound having a KD ratio of 0.1 or more and less than 3 is denoted as C)

Kd ([3]; SPR, Single Cycle Kinetics): 0.048 nM
SMILES: CCO[C@@H]1C[C@H]2C(=O)NC3(CCCC3)C(=O)N(C)[C@@H](C3CCCC3)C(=O)N(C)[C@H](C(=O)N(C)C)CC(=O)N(C)[C@@H](CC(C)C)C(=O)N[C@@H]([C@@H](C)CC)C(=O)N(C)CC(=O)N(C)[C@H]3C[C@@H](C)CCN(C3=O)[C@@H](Cc3ccc(C(F)(F)F)cc3)C(=O)N(C)CC(=O)N[C@@H](CCc3cc(F)c(C(F)(F)F)c(F)c3)C(=O)N2C1 [PP1017]
HRAS/KRAS (ratio of KD value for HRAS to KD value for KRAS) [2]: B (a compound having 3 or more and less than 10 is denoted as B)
NRAS/KRAS (ratio of KD value for NRAS to KD value for KRAS) [4]: C (A compound having a KD ratio of 0.1 or more and less than 3 is denoted as C)
